Measured values taken from ChEMBL document CHEMBL4359931, “Synthesis, biological evaluation and molecular docking studies of new amides of 4-bromothiocolchicine as anticancer agents” (Bioorg Med Chem, 2019).
Calls of active or inactive are those of the source. The rule behind the calls is not given here.

Legend:
MCF7 [1] = assay: Cell cycle arrest in human MCF7 cells assessed as accumulation in S phase at 5 times of antiproliferative IC50 incubated for 48 hrs by propidium iodide based flow cytometry (reference value: 34 %); type: functional
MCF7 [2] = assay: Cell cycle arrest in human MCF7 cells assessed as accumulation in subG1 phase at 5 times of antiproliferative IC50 incubated for 72 hrs by propidium iodide based flow cytometry (reference value: 3.59 %); type: functional
MCF7 [3] = assay: Cell cycle arrest in human MCF7 cells assessed as accumulation in S phase at 5 times of antiproliferative IC50 incubated for 72 hrs by propidium iodide based flow cytometry (reference value: 19.8 %); type: functional
MCF7 [4] = assay: Cell cycle arrest in human MCF7 cells assessed as accumulation in G1 phase at 5 times of antiproliferative IC50 incubated for 72 hrs by propidium iodide based flow cytometry (reference value: 58 %); type: functional
[5] = Cell cycle arrest in human ALL5 cells assessed as accumulation in G2 phase at 5 times of antiproliferative IC50 incubated for 72 hrs by propidium iodide based flow cytometry (reference value: 11.3 %); type: functional
MCF7 [6] = assay: Cell cycle arrest in human MCF7 cells assessed as accumulation in subG1 phase at 5 times of antiproliferative IC50 incubated for 24 hrs by propidium iodide based flow cytometry (reference value: 7.79 %); type: functional
[7] = Cell cycle arrest in human ALL5 cells assessed as accumulation in subG1 phase at 5 times of antiproliferative IC50 incubated for 72 hrs by propidium iodide based flow cytometry (reference value: 15.5 %); type: functional
MCF7 [8] = assay: Cell cycle arrest in human MCF7 cells assessed as accumulation in G2 phase at 5 times of antiproliferative IC50 incubated for 24 hrs by propidium iodide based flow cytometry (reference value: 22.4 %); type: functional
[9] = Cell cycle arrest in human ALL5 cells assessed as accumulation in S phase at 5 times of antiproliferative IC50 incubated for 72 hrs by propidium iodide based flow cytometry (reference value: 13.5 %); type: functional
MCF7 [10] = assay: Cell cycle arrest in human MCF7 cells assessed as accumulation in S phase at 5 times of antiproliferative IC50 incubated for 24 hrs by propidium iodide based flow cytometry (reference value: 19.9 %); type: functional
A549 = assay: Antiproliferative activity against human A549 cells assessed as reduction in cell viability incubated for 120 hrs by MTT assay; type: functional, cell-based; conditions: A549, 120 h
[11] = Cell cycle arrest in human ALL5 cells assessed as accumulation in subG1 phase at 5 times of antiproliferative IC50 incubated for 24 hrs by propidium iodide based flow cytometry (reference value: 10.5 %); type: functional
BALB/3T3 = assay: Antiproliferative activity against mouse BALB/3T3 cells assessed as reduction in cell viability incubated for 120 hrs by MTT assay; type: cell-based; conditions: BALB/3T3, 120 h
MCF7 [12] = assay: Cell cycle arrest in human MCF7 cells assessed as accumulation in G2 phase at 5 times of antiproliferative IC50 incubated for 72 hrs by propidium iodide based flow cytometry (reference value: 18.6 %); type: functional
[13] = Cell cycle arrest in human ALL5 cells assessed as accumulation in G1 phase at 5 times of antiproliferative IC50 incubated for 24 hrs by propidium iodide based flow cytometry (reference value: 68.1 %); type: functional
[14] = Cell cycle arrest in human ALL5 cells assessed as accumulation in G2 phase at 5 times of antiproliferative IC50 incubated for 24 hrs by propidium iodide based flow cytometry (reference value: 10.6 %); type: functional
MCF7 [15] = assay: Cell cycle arrest in human MCF7 cells assessed as accumulation in subG1 phase at 5 times of antiproliferative IC50 incubated for 48 hrs by propidium iodide based flow cytometry (reference value: 9.19 %); type: functional
[16] = Antiproliferative activity against human ALL5 cells assessed as reduction in cell viability incubated for 120 hrs by MTT assay; type: functional, cell-based; conditions: ALL5, 120 h
MCF7 [17] = assay: Cell cycle arrest in human MCF7 cells assessed as accumulation in G1 phase at 5 times of antiproliferative IC50 incubated for 24 hrs by propidium iodide based flow cytometry (reference value: 49.9 %); type: functional
[18] = Cell cycle arrest in human ALL5 cells assessed as accumulation in G1 phase at 5 times of antiproliferative IC50 incubated for 72 hrs by propidium iodide based flow cytometry (reference value: 59.7 %); type: functional
[19] = Cell cycle arrest in human ALL5 cells assessed as accumulation in S phase at 5 times of antiproliferative IC50 incubated for 48 hrs by propidium iodide based flow cytometry (reference value: 10.3 %); type: functional
Homo sapiens [20] = species: Homo sapiens; assay: Induction of apoptosis in human ALL5 cells assessed as increase in 85 kDa PARP expression at 0.2 uM incubated for 24 and 48 hrs by immunoblot analysis; type: functional, cell-based
MCF7 [21] = assay: Cell cycle arrest in human MCF7 cells assessed as accumulation in G1 phase at 5 times of antiproliferative IC50 incubated for 48 hrs by propidium iodide based flow cytometry (reference value: 40.8 %); type: functional
Homo sapiens [22] = species: Homo sapiens; assay: Induction of apoptosis in human ALL5 cells assessed as reduction in 116 kDa PARP expression at 0.2 uM incubated for 24 and 48 hrs by immunoblot analysis; type: functional, cell-based
MCF7 [23] = assay: Cell cycle arrest in human MCF7 cells assessed as accumulation in G2 phase at 5 times of antiproliferative IC50 incubated for 48 hrs by propidium iodide based flow cytometry (reference value: 16 %); type: functional
[24] = Cell cycle arrest in human ALL5 cells assessed as accumulation in subG1 phase at 5 times of antiproliferative IC50 incubated for 48 hrs by propidium iodide based flow cytometry (reference value: 11 %); type: functional
[25] = Cell cycle arrest in human ALL5 cells assessed as accumulation in G1 phase at 5 times of antiproliferative IC50 incubated for 48 hrs by propidium iodide based flow cytometry (reference value: 67.4 %); type: functional
[26] = Cell cycle arrest in human ALL5 cells assessed as accumulation in G2 phase at 5 times of antiproliferative IC50 incubated for 48 hrs by propidium iodide based flow cytometry (reference value: 11.2 %); type: functional
[27] = Cell cycle arrest in human ALL5 cells assessed as accumulation in S phase at 5 times of antiproliferative IC50 incubated for 24 hrs by propidium iodide based flow cytometry (reference value: […]); type: functional
[28] = Selectivity index, ratio of IC50 of mouse BALB/3T3 cells to IC50 of human LoVo cells; type: toxicity; conditions: BALB/3T3 cells versus LoVo cells, read-out: Ratio IC50
[29] = Resistance index, ratio of IC50 of human LoVo/DX cells to IC50 of human LoVo cells; type: functional
Homo sapiens [30] = species: Homo sapiens; assay: Induction of cell cycle arrest in human ALL5 cells assessed as increase in 4 N DNA at 5 times of antiproliferative IC50 incubated for 48 hrs by propidium iodide based flow cytometry; type: functional
[31] = Selectivity index, ratio of IC50 of mouse BALB/3T3 cells to IC50 of human LoVo/DX cells; type: toxicity; conditions: BALB/3T3 cells versus LoVo/DX cells, read-out: Ratio IC50
[32] = Selectivity index, ratio of IC50 of mouse BALB/3T3 cells to IC50 of human ALL5 cells
MCF7 [33] = assay: Antiproliferative activity against human MCF7 cells assessed as reduction in cell viability incubated for 120 hrs by MTT assay; type: functional, cell-based; conditions: MCF7, 120 h
[34] = Selectivity index, ratio of IC50 of mouse BALB/3T3 cells to IC50 of human MCF7 cells; type: toxicity; conditions: BALB/3T3 cells versus MCF7 cells, read-out: Ratio IC50
LoVo = assay: Antiproliferative activity against human LoVo cells assessed as reduction in cell viability incubated for 120 hrs by MTT assay; type: functional, cell-based
Homo sapiens [35] = species: Homo sapiens; assay: Induction of cell cycle arrest in human ALL5 cells assessed as increase in 4 N DNA at 5 times of antiproliferative IC50 incubated for 24 hrs by propidium iodide based flow cytometry; type: functional
[36] = Selectivity index, ratio of IC50 of mouse BALB/3T3 cells to IC50 of human A549 cells
Homo sapiens [37] = species: Homo sapiens; assay: Induction of cell death in human ALL5 cells assessed as decrease in 4 N DNA at 5 times of antiproliferative IC50 incubated for 72 hrs by propidium iodide based flow cytometry; type: functional
[38] = Antiproliferative activity against human LoVo/DX cells assessed as reduction in cell viability incubated for 120 hrs by MTT assay; type: functional, cell-based
Homo sapiens [39] = species: Homo sapiens; assay: Induction of apoptosis in human ALL5 cells assessed as increase in 85 kDa PARP expression at 26.5 uM incubated for 24 and 48 hrs by immunoblot analysis; type: functional, cell-based
Homo sapiens [40] = species: Homo sapiens; assay: Induction of apoptosis in human ALL5 cells assessed as reduction in 116 kDa PARP expression at 26.5 uM incubated for 24 and 48 hrs by immunoblot analysis; type: functional, cell-based

`COc1cccc2c1C(=O)c1c(O)c3c(c(O)c1C2=O)C[C@@](O)(C(=O)CO)C[C@@H]3O[C@H]1C[C@H](N)[C@H](O)[C@H](C)O1` [DOXORUBICIN] gave an Activity (MCF7 [1]) of 18.3%, an Activity (MCF7 [2]) of 18.3% and an Activity (MCF7 [3]) of 14.1%. For the same compound, the Activity (MCF7 [4]) was 35.1%, the Activity [5] was 9.99% and the Activity (MCF7 [6]) was 5.28%. The Activity [7] was 36.6%, the Activity (MCF7 [8]) was 30.5% and the Activity [9] was 16.9%. The Activity (MCF7 [10]) was 16.9%, the IC50 (A549) was 258 nM and the Activity [11] was 1.55%. The IC50 (BALB/3T3) was 166 nM, the Activity (MCF7 [12]) was 32.5% and the Activity [13] was 66.3%. The Activity [14] was 22%, the Activity (MCF7 [15]) was 6.08% and the IC50 [16] was 39.1 nM. The Activity (MCF7 [17]) was 47.3%, the Activity [18] was 36.5% and the Activity [19] was 2.77%. The Activity (Homo sapiens [20]) was “Active”, the Activity (MCF7 [21]) was 43.3% and the Activity (Homo sapiens [22]) was “Active”. For the same compound, the Activity (MCF7 [23]) was 32.4%, the Activity [24] was 21% and the Activity [25] was 67.6%. The Activity [26] was 5.52% and the Activity [27] was 7.16%.

`COc1c(Br)c2c(c(OC)c1OC)-c1ccc(SC)c(=O)cc1[C@@H](NC(=O)C(C)C)CC2` showed an Activity (MCF7 [1]) of 10.6%, an Activity (MCF7 [2]) of 17.5% and an Activity (MCF7 [3]) of 15.4%. For the same compound, the selectivity ratio [28] was 2.9, the “Ratio IC50” value [29] was 10.8 and the Activity (MCF7 [4]) was 9.6%. For the same compound, the Activity (Homo sapiens [30]) was “Active”, the Activity [5] was 7.59% and the selectivity ratio [31] was 0.3. The Activity (MCF7 [6]) was 4.89%, the Activity [7] was 46.9% and the “Ratio IC50” value [32] was 2.4. It also gave an Activity (MCF7 [8]) of 78%, an Activity [9] of 22.5% and an Activity (MCF7 [10]) of 5.16%. For the same compound, the IC50 (A549) was 10.2 nM, the Activity [11] was 18% and the IC50 (BALB/3T3) was 20.4 nM. It also gave an Activity (MCF7 [12]) of 57.5%, an Activity [13] of 52.5% and an IC50 (MCF7 [33]) of 11.5 nM. The Activity [14] was 15.8%, the Activity (MCF7 [15]) was 11.8% and the IC50 [16] was 8.6 nM. It also gave an Activity (MCF7 [17]) of 12%, an Activity [18] of 23% and an Activity [19] of 15.9%. For the same compound, the Activity (MCF7 [21]) was 11.4%, the selectivity ratio [34] was 1.8 and the Activity (MCF7 [23]) was 66.3%. The IC50 (LoVo) was 7 nM, the Activity (Homo sapiens [35]) was “Active” and the “Ratio IC50” value [36] was 2. For the same compound, the Activity [24] was 31.9%, the Activity [25] was 32.1% and the Activity [26] was 20%. For the same compound, the Activity [27] was 13.7%, the Activity (Homo sapiens [37]) was “Active” and the IC50 [38] was 75.9 nM.

In the case of `COCC(=O)N[C@H]1CCc2c(Br)c(OC)c(OC)c(OC)c2-c2ccc(SC)c(=O)cc21`, the Activity (Homo sapiens [39]) is reported as “Active”, the Activity (MCF7 [1]) is reported as 20.3% and the Activity (MCF7 [2]) is reported as 15.1%. For the same compound, the Activity (MCF7 [3]) was 7.98%, the selectivity ratio [28] was 1.5 and the “Ratio IC50” value [29] was 9.3. The Activity (MCF7 [4]) was 11.9%, the Activity (Homo sapiens [30]) was “Active” and the Activity [5] was 8.92%. For the same compound, the selectivity ratio [31] was 0.2, the Activity (MCF7 [6]) was 6.3% and the Activity [7] was 36.8%. For the same compound, the “Ratio IC50” value [32] was 2.2, the Activity (MCF7 [8]) was 74.7% and the Activity (Homo sapiens [40]) was “Active”. For the same compound, the Activity [9] was 25%, the Activity (MCF7 [10]) was 9.28% and the IC50 (A549) was 10.2 nM. For the same compound, the Activity [11] was 17.1%, the IC50 (BALB/3T3) was 11.4 nM and the Activity (MCF7 [12]) was 65%. The Activity [13] was 52.3%, the IC50 (MCF7 [33]) was 11.4 nM and the Activity [14] was 16.5%. It also gave an Activity (MCF7 [15]) of 13.5%, an IC50 [16] of 5.3 nM and an Activity (MCF7 [17]) of 9.68%. For the same compound, the Activity [18] was 29.3%, the Activity [19] was 15.3% and the Activity (MCF7 [21]) was 11.9%. The selectivity ratio [34] was 1, the Activity (MCF7 [23]) was 54.3% and the IC50 (LoVo) was 7.6 nM. The Activity (Homo sapiens [35]) was “Active”, the “Ratio IC50” value [36] was 1.1 and the Activity [24] was 29.1%. For the same compound, the Activity [25] was 35%, the Activity [26] was 20.6% and the Activity [27] was 14.1%. For the same compound, the Activity (Homo sapiens [37]) was “Active” and the IC50 [38] was 71.2 nM.
